Columns and labels:
Assay in all cases: Aminoacylation Assay
Conditions in all cases: pH 8
[1] = target: Phenylalanine--tRNA ligase alpha/beta subunit (Escherichia coli (strain K12), UniProt P07395+P08312)
Protocol: (§1) Compounds were solubilized in DMSO. Serial 2-fold dilutions covering two concentration ranges, 10 mM to 19.5 μM and 100 μM to 195 nM, were prepared. 0.6 μl/well of the diluted compound solutions (50× the final assay concentration) were added to white 384-well polystyrene assay plates (Thermo Fisher Scientific/Matrix Technology Corp., Hudson, NH). Uninhibited control wells (MAX)received 2 μl of 30% (v/v) DMSO. Baseline wells (MIN) received 2 μl of a solution containing 30% (v/v)DMSO and 15 mM L-phenylalanine (Sigma-Aldrich). Assays were performed in a buffer consisting of 50 mM Tris-HCl (pH 8.0), 50 mM NH4Cl, 10 mM MgCl2, 2 mM DTT, 0.005% Tween 20 (Surfact-Amps-20, Thermo Fisher Scientific/Pierce Protein Research products, Suwanee, GA), and 0.1 mM EDTA-NaOH (pH 8.0). Compounds were preincubated with 15 μl/well of either 2 nM E. coli PheRS, 2 nM H. influenzae PheRS, or 0.8 nM P. aeruginosa PheRS in buffer for 30 min at 2× final assay concentrations. The reactions were initiated with 15 μl/well of a 2× substrate solution in buffer containing 2 μM E. coli phenylalanine tRNA (Sigma-Aldrich), 100 μM ATP, and 2 μM [3H]Phe with a specific radioactivity of 6.3 Ci/mmol (PerkinElmer Life Sciences). The reactions were quenched after 30 min with 15 μl/well of a solution containing 4 mg/ml PVT/PEI/WGA type A SPA beads (PerkinElmer Life Sciences), 262 mM sodium citrate (pH 2.0), and 150 mM NaCl. The plates were sealed with transparent film (PerkinElmer Life Sciences). The beads were allowed to settle for a minimum of 2 h before scintillation counting with a Top-Count plate reader (PerkinElmer Life Sciences). [3H] counts (CPM) for aminoacylated tRNA were measured for 1 min/well.

[2] = target: Phenylalanine--tRNA ligase alpha/beta subunit (Pseudomonas aeruginosa (strain ATCC 15692 / PAO1 / 1C / PRS 101 / LMG12228), UniProt A0A8B5A132+Q9I0A4)
Chain of Phenylalanine--tRNA ligase alpha/beta subunit (Pseudomonas aeruginosa (strain ATCC 15692 / PAO1 / 1C / PRS 101 / LMG12228), UniProt A0A8B5A132+Q9I0A4) (A0A8B5A132 whole entry): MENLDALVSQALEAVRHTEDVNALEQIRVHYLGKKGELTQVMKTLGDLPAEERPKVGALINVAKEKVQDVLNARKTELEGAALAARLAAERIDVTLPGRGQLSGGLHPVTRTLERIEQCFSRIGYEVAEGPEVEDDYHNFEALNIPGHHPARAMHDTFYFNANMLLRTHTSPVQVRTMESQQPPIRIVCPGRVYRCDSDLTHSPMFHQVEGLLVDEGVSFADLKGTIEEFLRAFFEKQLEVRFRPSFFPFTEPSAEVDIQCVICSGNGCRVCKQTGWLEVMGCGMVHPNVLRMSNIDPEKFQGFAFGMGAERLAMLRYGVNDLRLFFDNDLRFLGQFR
Chain of Phenylalanine--tRNA ligase alpha/beta subunit (Pseudomonas aeruginosa (strain ATCC 15692 / PAO1 / 1C / PRS 101 / LMG12228), UniProt A0A8B5A132+Q9I0A4) (Q9I0A4 whole entry): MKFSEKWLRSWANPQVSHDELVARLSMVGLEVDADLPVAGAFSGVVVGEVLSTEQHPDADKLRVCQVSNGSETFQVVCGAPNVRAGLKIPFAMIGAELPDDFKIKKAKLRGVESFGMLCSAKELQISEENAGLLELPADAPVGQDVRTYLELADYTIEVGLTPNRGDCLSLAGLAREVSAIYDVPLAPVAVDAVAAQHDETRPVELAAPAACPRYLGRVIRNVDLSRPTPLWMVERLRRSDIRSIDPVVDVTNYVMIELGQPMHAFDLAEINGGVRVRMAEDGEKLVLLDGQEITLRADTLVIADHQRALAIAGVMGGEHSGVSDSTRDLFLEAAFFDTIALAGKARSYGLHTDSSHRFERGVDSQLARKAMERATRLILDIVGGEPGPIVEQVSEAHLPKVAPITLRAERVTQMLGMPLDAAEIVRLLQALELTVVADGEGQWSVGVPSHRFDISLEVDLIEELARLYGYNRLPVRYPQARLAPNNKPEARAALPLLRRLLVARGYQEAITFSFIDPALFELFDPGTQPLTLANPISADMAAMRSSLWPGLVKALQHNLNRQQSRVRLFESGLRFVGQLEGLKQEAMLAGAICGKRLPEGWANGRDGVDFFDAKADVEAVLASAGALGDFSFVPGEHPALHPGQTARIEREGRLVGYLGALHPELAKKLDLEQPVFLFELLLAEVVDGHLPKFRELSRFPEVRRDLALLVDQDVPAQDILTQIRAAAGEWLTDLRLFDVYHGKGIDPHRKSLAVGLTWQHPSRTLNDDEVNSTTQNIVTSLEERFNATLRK
Protocol: as §1

[3] = target: Phenylalanine--tRNA ligase alpha/beta subunit (Pseudomonas aeruginosa, UniProt Q9I0A3+Q9I0A4)
Chain of Phenylalanine--tRNA ligase alpha/beta subunit (Pseudomonas aeruginosa, UniProt Q9I0A3+Q9I0A4) (Q9I0A3 whole entry): as the sequence (A0A8B5A132 whole entry) above
Chain of Phenylalanine--tRNA ligase alpha/beta subunit (Pseudomonas aeruginosa, UniProt Q9I0A3+Q9I0A4) (Q9I0A4 whole entry): as the sequence (Q9I0A4 whole entry) above
Protocol: as §1

Chain of Phenylalanine--tRNA ligase alpha/beta subunit (Escherichia coli (strain K12), UniProt P07395+P08312) (P08312 whole entry): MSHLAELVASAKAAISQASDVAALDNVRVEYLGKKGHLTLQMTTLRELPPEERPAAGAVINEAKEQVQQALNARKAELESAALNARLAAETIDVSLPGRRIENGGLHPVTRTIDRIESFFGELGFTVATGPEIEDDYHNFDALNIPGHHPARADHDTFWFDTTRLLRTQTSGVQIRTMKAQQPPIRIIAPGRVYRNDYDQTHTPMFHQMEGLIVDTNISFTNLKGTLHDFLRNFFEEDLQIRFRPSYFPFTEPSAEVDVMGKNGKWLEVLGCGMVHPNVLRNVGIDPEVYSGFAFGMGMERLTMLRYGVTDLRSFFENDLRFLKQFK
Chain of Phenylalanine--tRNA ligase alpha/beta subunit (Escherichia coli (strain K12), UniProt P07395+P08312) (P07395 whole entry): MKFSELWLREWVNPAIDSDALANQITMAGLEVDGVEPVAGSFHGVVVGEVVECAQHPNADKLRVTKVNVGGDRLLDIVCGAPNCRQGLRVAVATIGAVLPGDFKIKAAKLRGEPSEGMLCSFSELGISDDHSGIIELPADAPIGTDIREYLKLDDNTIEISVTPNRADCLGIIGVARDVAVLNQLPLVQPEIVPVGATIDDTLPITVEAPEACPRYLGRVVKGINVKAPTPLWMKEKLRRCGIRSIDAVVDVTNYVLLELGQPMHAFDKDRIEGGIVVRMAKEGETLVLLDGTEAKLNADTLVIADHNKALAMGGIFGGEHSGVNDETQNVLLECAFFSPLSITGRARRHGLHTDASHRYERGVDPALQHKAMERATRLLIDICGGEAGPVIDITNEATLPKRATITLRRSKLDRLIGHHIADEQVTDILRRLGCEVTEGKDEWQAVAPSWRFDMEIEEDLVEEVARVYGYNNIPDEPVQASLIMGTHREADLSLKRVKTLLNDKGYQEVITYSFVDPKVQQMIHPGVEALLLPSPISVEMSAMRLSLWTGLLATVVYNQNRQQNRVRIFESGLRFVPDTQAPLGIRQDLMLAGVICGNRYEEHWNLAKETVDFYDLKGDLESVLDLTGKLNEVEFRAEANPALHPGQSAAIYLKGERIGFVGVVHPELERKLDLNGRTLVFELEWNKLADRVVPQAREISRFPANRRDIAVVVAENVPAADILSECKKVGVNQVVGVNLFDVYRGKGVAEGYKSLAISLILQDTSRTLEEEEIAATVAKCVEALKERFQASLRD

Compound	IC50 [1]	IC50 [2]	IC50 [3]
O=C(Nc1cccc(S(=O)(=O)N2CCN(c3ccccn3)CC2)c1)Nc1nccs1 [1-(3-(4-(Pyridin-2-yl)piperazin-1-ylsulfonyl)phenyl)-3-(thiazol-2-yl)urea (1a)]	2.7 nM	22 nM	
CNC(=O)COc1cccc(Nc2cc(Cl)ccn2)c1 [2-(3-(4-Chloropyridin-2-ylamino)phenoxy)-N-methylacetamide (2a)]	1400 nM	82000 nM	
CNC(=O)COc1cccc(Nc2cc(C#N)ccn2)c1 [2-(3-(4-Cyanopyridin-2-ylamino)phenoxy)-N-methylacetamide (2b)]	560 nM	41000 nM	
COc1cccc(-c2ncc(C(F)(F)F)[nH]2)c1 [2-(3-methoxyphenyl)-5-(trifluoromethyl)-1H-imidazole (3d)]	16000 nM		> 200000 nM
NS(=O)(=O)CCNC(=O)c1csc(COc2ccc(Cl)cc2)n1 [2-((4-Chlorophenoxy)methyl)-N-(2-sulfamoylethyl)thiazole-4-carboxamide (4c)]	190 nM	26000 nM	
N#CCNC(=O)c1csc(COc2ccc(Cl)cc2)n1 [2-((4-Chlorophenoxy)methyl)-N-(cyanomethyl)thiazole-4-carboxamide (4b)]	100 nM	13000 nM	
O=C(COc1cccc(Nc2cc(Cl)ccn2)c1)NC1CCS(=O)(=O)C1 (stereo unspecified) [2-[3-[(4-Chloro-2-pyridyl)amino]phenoxy]-N-(1,1-dioxothiolan-3-yl)acetamide (2c)]	100 nM	34000 nM	
COc1cccc(-c2cc(C(F)(F)F)n[nH]2)c1 [5-(3-Methoxyphenyl)-3-(trifluoromethyl)-1H-pyrazole (3a)]	60 nM		10000 nM
CCOC(=O)COc1cccc(-c2cc(C(F)F)n[nH]2)c1 [Ethyl 2-(3-(3-(difluoromethyl)-1H-pyrazol-5-yl)phenoxy)acetate (3c)]	1000 nM		59000 nM
CCOC(=O)COc1cccc(-c2cc(C(F)(F)F)[nH]n2)c1 [Ethyl 2-(3-(5-(trifluoromethyl)-1H-pyrazol-3-yl)phenoxy)acetate (3b)]	80 nM		11000 nM
Cc1ccc(OCc2nc(C(=O)NC3CCS(=O)(=O)C3)cs2)cc1 (stereo unspecified) [N-(1,1-dioxothiolan-3-yl)-2-[(4-methylphenoxy)methyl]thiazole-4-carboxamide (4a)]	1400 nM	80000 nM	
CS(=O)(=O)C1(CCNC(=O)COc2cccc(-c3cc(C(F)(F)F)[nH]n3)c2)CC1 [N-(2-(1-(methylsulfonyl)cyclopropyl)ethyl)-2-(3-(5-(trifluoromethyl)-1H-pyrazol-3-yl)phenoxy)acetamide (3e)]	70 nM		4200 nM
O=C(Nc1cccc(S(=O)(=O)NCCc2c[nH]c3ccccc23)c1)Nc1nccs1 [N-(2-(1H-indol-3-yl)ethyl)-3-(3-thiazol-2-ylureido)benzenesulfonamide (1b)]	2.2 nM		13 nM

From BindingDB's records for doi:10.1074/jbc.M114.574061 (AstraZeneca R&D Boston, 2014)
